From patent US20180289678A1, “PHARMACEUTICAL COMPOSITION, PHARMACEUTICAL DOSAGE FORM, PROCESS FOR THEIR PREPARATION, METHODS FOR TREATING AND USES THEREOF” (Boehringer Ingelheim International GmbH, priority 2009, published 2018)
Like-named read-outs stand apart in the source and are kept apart here.

Experiment: Study .2: multiple rising dose trial in diabetic patients, once daily for 8 days, pharmacokinetic parameters
Assay type: in vivo, human
Conditions: Study .2, fasted
Experimental: 5. Pharmacokinetic Parameters
The pharmacokinetic parameters of pharmaceutical compositions and pharmaceutical dosage forms are assessed in healthy volunteer and patient populations. In the studies shown below, the participants fasted on the day of sampling, unless as otherwise stated (see for example study .3). The active substance in the studies below is the compound (I.9), preferably in the crystalline form (I.9X), and the dose of active ingredient is indicated in mg.
For the quantification of plasma concentrations of the active ingredient, 2.7 mL of blood was collected and transferred into an EDTA (ethylendiaminetetraacetic acid)-anticoagulant blood drawing tube. The EDTA-anticoagulated blood samples were centrifuged immediately after collection. Centrifugation lasted for about 10 minutes (at about 2,000×gf to 4,000×gf) at 4-8° C. or within 30 minutes while stored on ice. Concentrations of active substance in EDTA human plasma samples were quantitated using a HPLC/MS/MS method. The assay method comprised a solid phase supported liquid-liquid extraction of human plasma coupled with HPLC/MS/MS determination of the extracted samples. The HPLC/MS/MS assay was validated for the range of 1.11 to 1110 nM in human plasma.
Study .2: Multiple rising dose trial in a diabetic patient population of N=48, once daily administration for 8 days. Patients were administered tablets as described in Example 10 (section Examples of formulations).
AUC0-inf:area under the concentration-time curve of the analyte in plasma over the time interval from 0 extrapolated to infinity.
Cmax: maximum concentration of the analyte in plasma.
Tmax: time from dosing to maximum concentration.
AUCT,SS:area under the concentration-time curve of the analyte in plasma over the time interval from 0 to 24 h at steady-state.
Cmax,ss:maximum concentration of the analyte in plasma at steady state over a uniform dosing interval.
tmax,ss:time from dosing to maximum concentration at steady state.

[1] = 2.5 mg once daily, steady state

- AUCτ,ss Max [1]: 0.677 µM·h
- AUCτ,ss Mean [1]: 0.471 µM·h
- AUCτ,ss Min [1]: 0.283 µM·h
- tmax,ss Median [1]: 90 min
- tmax,ss Min [1]: 59 min
- Cmax (2.5 mg once daily, steady state, read-out: Cmax,ss Max): 96.3 nM
- Cmax (2.5 mg once daily, steady state, read-out: Cmax,ss Mean): 68.5 nM
- Cmax (2.5 mg once daily, steady state, read-out: Cmax,ss Min): 40.3 nM
- AUC0-inf Max (2.5 mg single dose): 0.631 µM·h
- AUC0-inf Min (2.5 mg single dose): 0.326 µM·h
- AUC0-inf,norm Max (2.5 mg single dose): 252 nmol·h/L/mg
- AUC0-inf,norm Median (2.5 mg single dose): 200 nmol·h/L/mg
- AUC0-inf,norm Min (2.5 mg single dose): 130 nmol·h/L/mg
- AUC0-inf,norm gMean (2.5 mg single dose): 187 nmol·h/L/mg
- Cmax,norm Max (2.5 mg single dose): 32 nmol/L/mg
- Cmax,norm Median (2.5 mg single dose): 25 nmol/L/mg
- Cmax,norm Min (2.5 mg single dose): 17 nmol/L/mg
- Cmax,norm gMean (2.5 mg single dose): 25 nmol/L/mg
- tmax Max (2.5 mg single dose): 90 min
- tmax Min (2.5 mg single dose): 40 min
- Cmax (2.5 mg single dose, read-out: Cmax Max): 81.2 nM
- Cmax (2.5 mg single dose, read-out: Cmax Mean): 62.4 nM
- Cmax (2.5 mg single dose, read-out: Cmax Min): 43.3 nM
- AUCτ,ss Max (10 mg once daily, steady state): 2.58 µM·h
- AUCτ,ss Mean (10 mg once daily, steady state): 2.03 µM·h
- AUCτ,ss Min (10 mg once daily, steady state): 1.64 µM·h
- tmax,ss Min (10 mg once daily, steady state): 59 min
- Cmax (10 mg once daily, steady state, read-out: Cmax,ss Max): 479 nM
- Cmax (10 mg once daily, steady state, read-out: Cmax,ss Mean): 283 nM
- Cmax (10 mg once daily, steady state, read-out: Cmax,ss Min): 172 nM
- AUC0-inf Max (10 mg single dose): 2.4 µM·h
- AUC0-inf Min (10 mg single dose): 1.6 µM·h
- AUC0-inf,norm Max (10 mg single dose): 240 nmol·h/L/mg
- AUC0-inf,norm Median (10 mg single dose): 183 nmol·h/L/mg
- AUC0-inf,norm Min (10 mg single dose): 160 nmol·h/L/mg
- AUC0-inf,norm gMean (10 mg single dose): 189 nmol·h/L/mg
- Cmax,norm Max (10 mg single dose): 34 nmol/L/mg
- Cmax,norm Median (10 mg single dose): 23 nmol/L/mg
- Cmax,norm Min (10 mg single dose): 16 nmol/L/mg
- Cmax,norm gMean (10 mg single dose): 24 nmol/L/mg
- tmax Median (10 mg single dose): 90 min
- tmax Min (10 mg single dose): 59 min
- Cmax (10 mg single dose, read-out: Cmax Max): 344 nM
- Cmax (10 mg single dose, read-out: Cmax Mean): 245 nM
- Cmax (10 mg single dose, read-out: Cmax Min): 163 nM
- AUCτ,ss Max (25 mg once daily, steady state): 6.65 µM·h
- AUCτ,ss Mean (25 mg once daily, steady state): 4.99 µM·h
- AUCτ,ss Min (25 mg once daily, steady state): 3.44 µM·h
- tmax,ss Max (25 mg once daily, steady state): 252 min
- tmax,ss Min (25 mg once daily, steady state): 40 min
- Cmax (25 mg once daily, steady state, read-out: Cmax,ss Max): 793 nM
- Cmax (25 mg once daily, steady state, read-out: Cmax,ss Mean): 630 nM
- Cmax (25 mg once daily, steady state, read-out: Cmax,ss Min): 443 nM
- AUC0-inf Max (25 mg single dose): 6.92 µM·h
- AUC0-inf Min (25 mg single dose): 3.69 µM·h
- AUC0-inf,norm Max (25 mg single dose): 277 nmol·h/L/mg
- AUC0-inf,norm Median (25 mg single dose): 186 nmol·h/L/mg
- AUC0-inf,norm Min (25 mg single dose): 148 nmol·h/L/mg
- AUC0-inf,norm gMean (25 mg single dose): 191 nmol·h/L/mg
- Cmax,norm Max (25 mg single dose): 36 nmol/L/mg
- Cmax,norm Median (25 mg single dose): 23 nmol/L/mg
- Cmax,norm Min (25 mg single dose): 17 nmol/L/mg
- Cmax,norm gMean (25 mg single dose): 24 nmol/L/mg
- tmax Max (25 mg single dose): 240 min
- tmax Min (25 mg single dose): 59 min
- Cmax (25 mg single dose, read-out: Cmax Max): 905 nM
- Cmax (25 mg single dose, read-out: Cmax Mean): 606 nM
SMILES: OC[C@H]1O[C@@H](c2ccc(Cl)c(Cc3ccc(O[C@H]4CCOC4)cc3)c2)[C@H](O)[C@@H](O)[C@@H]1O [Compound (I.9), 1-chloro-4-(β-D-glucopyranos-1-yl)-2-[4-((S)-tetrahydrofuran-3-yloxy)-benzyl]-benzene]
